The subject of one data set is HCT116 cell line. The experiment in a line: Anti-proliferative activity, Alamar Blue assay. Format: cell-based. As to conditions: Homo sapiens, HCT-116, 72 h. As for the experimental part: The anti-proliferative activities of compounds of the invention can be determined by measuring the ability of the compounds to inhibition of cell growth in a number of cell lines such as the human colon cancer cell line HCT116. […] The method is based on the ability of viable cells to reduce resazurin to its fluorescent product resorufin. […] The number of viable cells is determined by Alamar Blue assay as before. Cell lines can be obtained from the ECACC (European Collection of cell Cultures).
For orientation: Alamar Blue is a resazurin reagent that responds to reducing activity.

Another data set in a line: Plasma stability studies. It is filed as in vitro ADME. Particulars: mouse plasma, 37° C., approximately 1 hour. The method, then: The ease with which pro-drug compounds of the invention can be converted to the active moiety can be assessed by measuring the in vitro plasma stability of the compounds. The method is based on the ability of plasma enzymes to metabolise compounds to the active moiety. Compounds are added to plasma and incubated at 37° C. for approximately 1 hour. Aliquots of plasma are removed at timed intervals and the compound extracted by the addition of acetonitrile containing an internal standard. All extracts are then analysed for parent compound, the active moiety and the internal standard using a compound specific LCMS-MS assay. Stability is measured by comparison of the peak area ratio of the parent compound and internal standard at time zero with the peak area ratio of the parent compound and internal standard in the incubated samples. Generation of the active moiety in samples is also assessed.

Where a name gives a salt, the structure may show the parent alone. Where only a bound is given, the exact number is not on record here.

The term IC50 denotes the point on the concentration scale where inhibition reaches its midpoint. The low end stands for greater potency, the high end for weaker potency.

As for `CC(C)c1cc(C(=O)N2Cc3ccccc3C2)c(O)cc1O` [Example 5, (1,3-Dihydro-isoindol-2-yl)-(2,4-dihydroxy-5-isopropyl-phenyl)-methanone], in the data set with HCT116 cell line, the IC50 is < 1000 nM.

`CC(C)c1cc(C(=O)N2Cc3ccc(C(=O)N4CCNCC4)cc3C2)c(O)cc1O` [Example 54, (2,4-dihydroxy-5-isopropyl-phenyl)-[5-(piperazine-1-carbonyl)-1,3-dihydro-isoindol-2-yl]-methanone hydrochloride]: the IC50 in the data set on HCT116 cell line is < 1000 nM.

Take `CC(=O)Oc1cc(OC(C)=O)c(C(C)C)cc1C(=O)N1Cc2ccc(N3CCN(C)CC3)cc2C1` [Example 84, acetic acid 5-acetoxy-4-isopropyl-2-[5-(4-methyl-piperazin-1-yl)-1,3-dihydro-isoindole-2-carbonyl]-phenyl ester]: in the data set “Plasma stability studies”, the “generation of the active moiety (2,4-dihydroxy-5-isopropyl-phenyl)-[5-(4-methyl-piperazin-1-yl)-1,3-dihydro-isoindol-2-yl]-methanone” value (shortened to “generation of the active moiety”) is recorded as “formed the active moiety” and the “in vitro plasma stability” value is listed as “range of stabilities”.

As to `CC(C)c1cc(C(=O)N2Cc3ccc(N4CCN(C)CC4)cc3C2)c(OC(=O)C(C)(C)C)cc1OC(=O)C(C)(C)C` [Example 85, 2,2-dimethyl-propionic acid 5-(2,2-dimethyl-propionyloxy)-4-isopropyl-2-[5-(4-methyl-piperazin-1-yl)-1,3-dihydro-isoindole-2-carbonyl]-phenyl ester], in the data set “Plasma stability studies”, the “generation of the active moiety” value is “formed the active moiety” and the “in vitro plasma stability” value is listed as “range of stabilities”.

With `CC(C)c1cc(C(=O)N2Cc3ccc(N4CCN(C)CC4)cc3C2)c(OC(=O)N(C)C)cc1OC(=O)N(C)C` [Example 86, dimethyl-carbamic acid 5-dimethylcarbamoyloxy-2-isopropyl-4-[5-(4-methyl-piperazin-1-yl)-1,3-dihydro-isoindole-2-carbonyl]-phenyl ester], in “Plasma stability studies”, the “generation of the active moiety” value was “formed the active moiety” and the “in vitro plasma stability” value was “range of stabilities”.

The record behind these values is patent US8779132B2, “Pharmaceutical compounds” (Astex Therapeutics Limited, priority 2006, dated 2014).
